Test results from ChEMBL document CHEMBL5705903, “A DNA Hypomethylation Signature Predicts Antitumor Activity of LSD1 Inhibitors in SCLC” (Cancer Cell, 2015).
Activity calls are given as the source filed them. No cut-off for these calls is given here.

What was measured:
[1] = Effect on cleaved PARP level in human COLO-668 cells assessed as relative expression at 100 nM measured after 10 days by Western blot analysis (reference value: 1.07); format: functional; settings: time 10 day
NCI-H1417 = test: In vivo inhibition of LSD1 in human NCI-H1417 cells xenografted in nude mouse assessed as change in SNTB1 gene expression measured after 24 hrs post single administration by qRT-PCR analysis; format: functional, organism-based; settings: dose 0.02-135 mg/kg
[2] = Effect on cleaved PARP level in human NCI-H146 cells assessed as fold change at 1000 nM measured after 14 days by Western blot analysis (reference value: 1.00); format: functional; settings: time 14 day
[3] = Effect on cleaved PARP level in human NCI-H510 cells assessed as fold change at 1000 nM measured after 14 days by Western blot analysis (reference value: 1.00); format: functional, NCI-H510A; settings: time 14 day
NCI-H446 = test: Effect on NCAM gene expression in human NCI-H446 cells at 1 uM measured after 4 days by qRT-PCR analysis; format: functional, cell-based; settings: time 4.0 day
[4] = Effect on cleaved PARP level in human NCI-H146 cells assessed as relative expression at 100 nM measured after 14 days by Western blot analysis (reference value: 2.42); format: functional; settings: time 14 day
NCI-H526 [5] = test: Effect on cell cycle in human NCI-H526 cells assessed as cell accumulation at […] phase upto 1000 nM measured for 7 to 14 days by flow cytometry; format: functional, cell-based; settings: time 7-14 day
[6] = Effect on cleaved PARP level in human COLO-668 cells assessed as fold change at 10 nM measured after 7 days by Western blot analysis (reference value: 1.00); format: functional; settings: time 7 day
[7] = Effect on cleaved PARP level in human NCI-H524 cells assessed as fold change at 100 nM measured after 7 days by Western blot analysis (reference value: 1.00); format: functional; settings: time 7 day
NCI-H526 [8] = test: In vivo inhibition of LSD1 in human NCI-H526 cells xenografted in nude mouse assessed as change in ZEB1 gene expression administrated daily for 5 days by qRT-PCR analysis; format: functional, organism-based; settings: dose 0.02-135 mg/kg, time 5.0 day
[9] = Effect on cleaved PARP level in human NCI-H2171 cells assessed as fold change at 10 nM measured after 7 days by Western blot analysis (reference value: 1.00); format: functional; settings: time 7 day
[10] = Effect on cleaved PARP level in human NCI-H526 cells assessed as fold change at 100 nM measured after 10 days by Western blot analysis (reference value: 1.00); format: functional; settings: time 10 day
[11] = Effect on cleaved PARP level in human NCI-H524 cells assessed as fold change at 1000 nM measured after 7 days by Western blot analysis (reference value: 1.00); format: functional; settings: time 7 day
NCI-H69 [12] = test: Antitumor activity against human NCI-H69 cells xenografted in nude mouse assessed as tumor growth inhibition at 0.5 mg/kg, po administered daily measured twice weekly relative to control; format: functional; settings: read-out: TGI
[13] = Effect on cleaved PARP level in human NCI-H2171 cells assessed as relative expression at 100 nM measured after 10 days by Western blot analysis (reference value: 0.02); format: functional; settings: time 10 day
[14] = Effect on cleaved PARP level in human COLO-668 cells assessed as fold change at 10 nM measured after 10 days by Western blot analysis (reference value: 1.00); format: functional; settings: time 10 day
[15] = Effect on cleaved PARP level in human NCI-H146 cells assessed as fold change at 10 nM measured after 7 days by Western blot analysis (reference value: 1.00); format: functional; settings: time 7 day
NCI-H526 [16] = test: Effect on NCAM gene expression in human NCI-H526 cells at 1 uM measured after 4 days by qRT-PCR analysis; format: functional, cell-based; settings: time 4.0 day
[17] = Effect on cleaved PARP level in human COLO-668 cells assessed as relative expression at 10 nM measured after 7 days by Western blot analysis (reference value: […]); format: functional; settings: time 7 day
[18] = Effect on cleaved PARP level in human NCI-H510 cells assessed as relative expression at 1000 nM measured after 10 days by Western blot analysis (reference value: 0.02); format: functional, NCI-H510A; settings: time 10 day
[19] = Toxicity in dog assessed as suppression of platelet in bone marrow measured for 28 days; format: cell-based, Canis lupus familiaris; settings: 672 h, time 28 day
NCI-H69 [20] = test: Antitumor activity against human NCI-H69 cells xenografted in nude mouse assessed as tumor growth inhibition at 1.5 mg/kg, po administered daily measured twice weekly relative to control; format: functional; settings: read-out: TGI
NCI-H526 [21] = test: Antitumor activity against human NCI-H526 cells xenografted in nude mouse assessed as mean tumor volume at 0.5 mg/kg, po administered daily measured twice weekly (reference value: 2359 +/- 247 mm3); format: functional
NCI-H526 [22] = test: In vivo inhibition of LSD1 in human NCI-H526 cells xenografted in nude mouse assessed as change in IGFBP2 gene expression measured after 24 hrs post single administration by qRT-PCR analysis; format: functional, organism-based; settings: dose 0.06-135 mg/kg
NCI-H526 [23] = test: In vivo inhibition of LSD1 in human NCI-H526 cells xenografted in nude mouse assessed as change in ANXA6 gene expression measured after 24 hrs post single administration by qRT-PCR analysis; format: functional, organism-based; settings: dose 0.06-135 mg/kg
[24] = Oral bioavailability in mouse at 5 mg/kg by HPLC/MS/MS analysis; format: ADME, organism-based; settings: in vivo
[25] = Effect on cleaved PARP level in human NCI-H524 cells assessed as fold change at 100 nM measured after 10 days by Western blot analysis (reference value: 1.00); format: functional; settings: time 10 day
[26] = Effect on cleaved PARP level in human NCI-H1417 cells assessed as fold change at 1000 nM measured after 7 days by Western blot analysis (reference value: 1.00); format: functional; settings: time 7 day
[27] = Effect on cleaved PARP level in human NCI-H889 cells assessed as fold change at 100 nM measured after 14 days by Western blot analysis (reference value: 1.00); format: functional; settings: time 14 day
[28] = Effect on cleaved PARP level in human NCI-H510 cells assessed as relative expression at 1000 nM measured after 14 days by Western blot analysis (reference value: 0.01); format: functional, NCI-H510A; settings: time 14 day
[29] = Effect on cleaved PARP level in human NCI-H69 cells assessed as fold change at 1000 nM measured after 10 days by Western blot analysis (reference value: 1.00); format: functional; settings: time 10 day
D-amino-acid oxidase = D-amino-acid oxidase (Homo sapiens, UniProt P14920); test: Binding affinity to D-amino acid oxidase (unknown origin) assessed as apparent inhibition constant; settings: read-out: Ki(app)
COLO-668 = test: Effect on NSE gene expression in human COLO-668 cells at 1 uM measured after 4 to 7 days by qRT-PCR analysis; format: functional, cell-based; settings: time 4-7 day
[30] = Toxicity in dog assessed as morbidity measured for 28 days; set-up: species or system Canis lupus familiaris; settings: in vivo, 672 h, time 28 day
SHP77 = test: Effect on SYP gene expression in human SHP77 cells at 1 uM measured after 4 days by qRT-PCR analysis; format: functional, cell-based; settings: time 4.0 day
[31] = Effect on cleaved PARP level in human NCI-H146 cells assessed as fold change at 10 nM measured after 10 days by Western blot analysis (reference value: 1.00); format: functional; settings: time 10 day

Chain of D-amino-acid oxidase (P14920 whole entry): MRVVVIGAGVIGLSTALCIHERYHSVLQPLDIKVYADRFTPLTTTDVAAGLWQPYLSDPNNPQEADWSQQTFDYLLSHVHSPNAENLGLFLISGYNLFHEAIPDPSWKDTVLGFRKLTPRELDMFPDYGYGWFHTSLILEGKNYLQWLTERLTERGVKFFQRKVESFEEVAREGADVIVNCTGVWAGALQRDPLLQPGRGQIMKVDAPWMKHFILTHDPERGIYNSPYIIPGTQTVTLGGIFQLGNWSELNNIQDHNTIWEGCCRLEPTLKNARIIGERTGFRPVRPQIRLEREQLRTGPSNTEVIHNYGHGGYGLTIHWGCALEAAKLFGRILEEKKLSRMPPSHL

O=C(O)c1ccc(CN2CCC(CN[C@@H]3C[C@H]3c3ccccc3)CC2)cc1 [GSK2879552]
Activity [1]: 0.74
inhibition (NCI-H1417): Dose-Dependent Effect
fold change (FC) [2]: 0.6
fold change (FC) [3]: 2.61
Activity (NCI-H446): inactive
Activity [4]: 1.09
Activity (NCI-H526 [5]): inactive
fold change (FC) [6]: 0.74
fold change (FC) [7]: 0.95
inhibition (NCI-H526 [8]): Dose-Dependent Effect
fold change (FC) [9]: 1.53
fold change (FC) [10]: 1.16
fold change (FC) [11]: 1.77
inhibition in vivo at 0.5 mg/kg (NCI-H69 [12]): 51%
Activity [13]: 0.02
fold change (FC) [14]: 0.75
fold change (FC) [15]: 1.09
Activity (NCI-H526 [16]): inactive
Activity [17]: 1.07
Activity [18]: 0.23
Activity [19]: Toxic
inhibition in vivo at 1.5 mg/kg (NCI-H69 [20]): 49%
Activity (NCI-H526 [21]): 1319 mm3
inhibition (NCI-H526 [22]): Dose-Dependent Effect
inhibition (NCI-H526 [23]): Dose-Dependent Effect
bioavailability [24]: 59.2%
fold change (FC) [25]: 0.71
fold change (FC) [26]: 3.48
fold change (FC) [27]: 2.51
Activity [28]: 0.47
fold change (FC) [29]: 2.5
Ki (D-amino-acid oxidase): 520 µM
Activity (COLO-668): inactive
Activity [30]: Toxic
Activity (SHP77): inactive
fold change (FC) [31]: 1.24
